Like-named read-outs stand apart in the source and are kept apart here.

The results in this text go back to patent US20200239530A1, “COMPOUNDS AND METHODS OF MODULATING PROTEIN DEGRADATION” (Vividion Therapeutics, Inc., priority 2017, published 2020).

Holding throughout (format): binding
One assay addresses T1, UniProt O60260 (Homo sapiens, UniProt O60260).
T1 construct: 200 μL of lysate containing 5 mg/ml proteome was treated with 2 μL of 100× compound stock; endogenous in cells
T1 sequence (O60260 1-465): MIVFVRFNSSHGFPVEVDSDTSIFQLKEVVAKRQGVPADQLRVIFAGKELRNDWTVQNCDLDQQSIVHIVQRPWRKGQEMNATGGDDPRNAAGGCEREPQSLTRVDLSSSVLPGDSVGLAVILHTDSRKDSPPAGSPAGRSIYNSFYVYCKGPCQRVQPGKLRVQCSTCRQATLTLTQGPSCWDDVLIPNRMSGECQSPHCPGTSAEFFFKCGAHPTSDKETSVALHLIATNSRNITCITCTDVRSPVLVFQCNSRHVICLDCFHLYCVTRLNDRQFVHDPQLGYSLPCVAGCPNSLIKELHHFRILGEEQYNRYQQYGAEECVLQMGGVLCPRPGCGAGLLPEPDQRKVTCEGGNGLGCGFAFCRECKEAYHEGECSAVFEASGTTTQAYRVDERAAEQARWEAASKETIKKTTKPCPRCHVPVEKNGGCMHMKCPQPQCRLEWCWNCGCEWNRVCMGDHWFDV
As to the kind of experiment: Cysteine liganding, probe competition. From the text:
(§1) The following 96-well sample prep protocol was used for sample preparation.

The target in another assay is T2, Q9H765 (Homo sapiens, UniProt Q9H765).
T2 construct: 200 μL of lysate containing 5 mg/ml proteome was treated with 2 μL of 100× compound stock; endogenous in cells
T2 sequence (Q9H765 1-288): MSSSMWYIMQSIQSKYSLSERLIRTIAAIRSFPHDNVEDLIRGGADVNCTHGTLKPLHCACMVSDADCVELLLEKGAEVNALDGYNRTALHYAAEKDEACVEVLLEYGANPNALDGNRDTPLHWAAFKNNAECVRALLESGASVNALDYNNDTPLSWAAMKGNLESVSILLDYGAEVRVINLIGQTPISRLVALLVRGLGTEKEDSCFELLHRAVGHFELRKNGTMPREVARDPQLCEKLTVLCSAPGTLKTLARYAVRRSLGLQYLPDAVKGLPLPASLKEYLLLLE
Briefly: Competitive cysteine profiling, probe competition (Table 2B).
Text: as §1

Another assay concerns the target T3, Q86VP6 (Homo sapiens, UniProt Q86VP6).
T3 construct: 200 μL of lysate containing 5 mg/ml proteome was treated with 2 μL of 100× compound stock; endogenous in cells
T3 sequence (Q86VP6 1-1230): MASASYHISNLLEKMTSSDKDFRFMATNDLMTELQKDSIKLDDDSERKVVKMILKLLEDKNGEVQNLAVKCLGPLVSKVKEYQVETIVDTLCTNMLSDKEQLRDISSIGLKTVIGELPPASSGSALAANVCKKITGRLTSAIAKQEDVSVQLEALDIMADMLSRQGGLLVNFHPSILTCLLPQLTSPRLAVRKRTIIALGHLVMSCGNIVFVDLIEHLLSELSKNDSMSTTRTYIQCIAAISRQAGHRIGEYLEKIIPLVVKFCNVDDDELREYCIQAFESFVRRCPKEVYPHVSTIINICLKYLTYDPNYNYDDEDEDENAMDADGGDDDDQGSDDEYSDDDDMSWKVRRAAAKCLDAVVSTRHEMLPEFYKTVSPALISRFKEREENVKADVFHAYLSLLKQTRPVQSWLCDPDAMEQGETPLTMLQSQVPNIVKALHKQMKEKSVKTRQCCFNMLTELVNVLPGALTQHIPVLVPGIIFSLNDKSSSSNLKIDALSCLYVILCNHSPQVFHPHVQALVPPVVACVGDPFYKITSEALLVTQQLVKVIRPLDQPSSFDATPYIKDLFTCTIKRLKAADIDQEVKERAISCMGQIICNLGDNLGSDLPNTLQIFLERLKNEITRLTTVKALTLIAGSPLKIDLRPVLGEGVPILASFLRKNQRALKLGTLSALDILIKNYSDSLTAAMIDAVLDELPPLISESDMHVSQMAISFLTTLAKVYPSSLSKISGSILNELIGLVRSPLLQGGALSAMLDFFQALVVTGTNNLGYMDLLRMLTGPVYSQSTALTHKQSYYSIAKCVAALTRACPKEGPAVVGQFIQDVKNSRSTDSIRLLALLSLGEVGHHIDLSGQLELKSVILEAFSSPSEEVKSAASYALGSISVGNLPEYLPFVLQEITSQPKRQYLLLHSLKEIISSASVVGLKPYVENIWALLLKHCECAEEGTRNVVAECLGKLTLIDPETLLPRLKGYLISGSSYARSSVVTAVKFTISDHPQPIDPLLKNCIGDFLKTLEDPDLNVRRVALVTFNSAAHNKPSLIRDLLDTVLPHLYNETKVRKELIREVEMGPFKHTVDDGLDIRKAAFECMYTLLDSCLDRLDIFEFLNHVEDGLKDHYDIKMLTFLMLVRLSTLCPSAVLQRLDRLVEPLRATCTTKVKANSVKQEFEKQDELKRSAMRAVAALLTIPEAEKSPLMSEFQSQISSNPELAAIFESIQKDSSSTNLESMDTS
Described as above.
Text: as §1

In another assay the target is T4, Q96DX5 (Homo sapiens, UniProt Q96DX5).
T4 construct: 200 μL of lysate containing 5 mg/ml proteome was treated with 2 μL of 100× compound stock; endogenous in cells
T4 sequence (Q96DX5 1-294): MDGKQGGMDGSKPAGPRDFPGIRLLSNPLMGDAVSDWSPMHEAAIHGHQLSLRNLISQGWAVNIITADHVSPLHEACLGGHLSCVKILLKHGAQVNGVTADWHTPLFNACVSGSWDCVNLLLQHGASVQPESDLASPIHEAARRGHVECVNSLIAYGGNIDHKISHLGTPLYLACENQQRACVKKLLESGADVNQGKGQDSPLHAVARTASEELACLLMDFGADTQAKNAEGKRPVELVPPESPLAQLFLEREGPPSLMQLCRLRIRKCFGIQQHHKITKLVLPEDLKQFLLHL
Described as above.
Text: as §1

The next assay has as its target T5, Q9UM13 (Homo sapiens, UniProt Q9UM13).
T5 construct: Cells were resuspended in cold PBS on ice and sonicated with a probe sonicator to achieve lysis; endogenous in cells
Described as above.
Text: as §1

The mark [1] stands for this setting: 100 uM, read-out: KB02_100 uM_percent_inhibition.
Where [2] appears, read: 500 uM, read-out: KB02_500 uM_percent_inhibition.
Where [3] appears, read: read-out: KB02_100 uM_percent_inhibition.
The mark [4] stands for this setting: 500 uM, read-out: KB05_500 uM_percent_inhibition.
[5] abbreviates: read-out: KB05_100 uM_percent_inhibition.

T5 sequence (Q9UM13 whole entry): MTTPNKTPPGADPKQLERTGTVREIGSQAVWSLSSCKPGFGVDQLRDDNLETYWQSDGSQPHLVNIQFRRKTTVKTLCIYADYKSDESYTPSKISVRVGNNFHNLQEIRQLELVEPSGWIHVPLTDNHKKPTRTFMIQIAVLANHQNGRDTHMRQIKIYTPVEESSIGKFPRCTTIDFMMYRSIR

On to `O=C(CCl)Nc1cc(C(F)(F)F)cc(C(F)(F)F)c1` [KBO3], for which the entries for the “KB03_500 uM_percent_inhibition” value at UniProt O60260 (500 uM), on Q9H765 (500 uM) and on Q9UM13 (500 uM) were 91%, 40% and 37%, respectively. Also, the “KB03_100 uM_percent_inhibition” value at Q86VP6 (100 uM) came out at 46%; on Q96DX5 (100 uM) it was 33%; at Q9UM13 (100 uM), 11%.
In the case of `COc1ccc2c(c1)CCCN2C(=O)CCl` [KB02], the inhibition at 500 µM on UniProt O60260 (read-out: KB02_500 uM_percent_inhibition) worked out at 92%; at Q9H765 (setting [2]), 54%; at Q9UM13 (setting [2]) it was 53%. Also, the inhibition at 100 µM on Q9H765 (setting [1]) came to 19%; on Q86VP6 (setting [3]) it was 47%; on Q96DX5 (setting [3]), 30%; at Q9UM13 (setting [1]) it was 1%. Besides, the “KB02_100 uM_percent_inhibition” value at Q86VP6 (100 uM) is listed as 27%.
For the compound `C=CC(=O)N(c1ccccc1)c1ccc(Br)cc1` [KB05], the inhibition at 500 µM on UniProt O60260 (read-out: KB05_500 uM_percent_inhibition) was determined as 93%; at Q9H765 (setting [4]), 37%; at Q9UM13 (setting [4]) it was 62%. Also, the “KB05_100 uM_percent_inhibition” value on Q86VP6 (100 uM) amounted to 7%. Also, the inhibition at 100 µM stood at 4% on Q86VP6 (setting [5]); 12% at Q96DX5 (setting [5]); 18% at Q9UM13 (100 uM, read-out: KB05_100 uM_percent_inhibition).
